Source: patent US7151093B2, “Use of sphingosine 1-phosphate as active ingredient for the treatment of pulmonary fibrosis” (Ono Pharmaceutical Co., Ltd., priority 1999, dated 2006)

Test system: Bleomycin-induced Lung Injury Model Animal
Assay: Bleomycin-induced lung injury model, lung tissue hydroxyproline content
Type: in vivo, ICR male mice
Procedure: Production of Bleomycin-induced Lung Injury Model Animal:
Using each of ICR male mice and under pentobarbital (60 mg/kg, i.v.) anesthesia, the cervical region was shaved and the skin was incised for about 4 mm from under the larynx region along the median line. Next, the muscle layer covering upper trachea was peeled off to expose the trachea. Using a micro-syringe, physiological saline or bleomycin hydrochloride (0.03 mg/animal, manufactured by Nippon Kayaku) was administered tracheally (50 μl/animal) from the tracheal smooth muscle region between cricoid cartilage. After the administration, the incised region was closed and antibiotics were administered into the thigh intramuscularly in order to prevent infection. S1P (10 mg/5 ml/kg, 0.5% aqueous solution of carboxymethylcellulose sodium (CMC.Na)-physiological saline, manufactured by Matreya) was intraperitoneally administered once a day for 14 days after the bleomycin induction. […]
The hydrolyzed supernatant (25 μl) was mixed with borate-alanine buffer (2.475 ml) separately prepared, and potassium chloride (solid) was added thereto until it was saturated. […] The absorbance of each sample was immediately measured at 560 nm, and the amount of hydroxyproline in the sample was calculated from a calibration curve.
The inhibition ratio was calculated by the following equation. […]

CCCCCCCCCCCCC/C=C/[C@H](O)[C@H](N)COP(=O)(O)O (stereo in doubt) [S1P, sphingosine 1-phosphate]
Inhibition ratio: suppression of bleomycin-induced increase of hydroxyproline content ([{(C−B)−(S−B)}÷(C−B)]×100, S1P 10 mg/kg i.p. once a day for 14 days, ICR male mice): ca. 90% | Hydroxyproline content (bleomycin-induced (0.03 mg/animal, tracheal) ICR male mice, S1P 10 mg/5 ml/kg i.p. once a day for 14 days, lung excised fifteen days after induction): 227.8 ± 17.5 μg/lung
